Data: US20250009745A1, “CDK INHIBITOR” (SHANGHAI QILU PHARMACEUTICAL RESEARCH AND DEVELOPMENT …, priority 2021, published 2025)

Tests used:
Test in all cases: CDK enzymology experiment in vitro, capillary mobility shift assay (MSA)
Format in all cases: biochemical
CDK1 = target: T1, CDK1 (Homo sapiens, UniProt P06493); conditions: read-out: CDK1 (nM) inhibitory IC50
T1 construct: purchased Carna Company
Procedure, shortened: (§1)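 Recombinant kinases tested against peptide substrates in 1× kinase buffer, with compound added as a 100-fold DMSO stock. Top concentration 1, 10 or 30 μM, 3-fold dilutions over 10 points, in duplicate. Substrate conversion read by Caliper EZ Reader, normalised to no-enzyme and no-compound controls, and IC50 fitted with a variable-slope log(inhibitor)–response model.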

CDK2 = target: T2, CDK2 (Homo sapiens, UniProt P24941); conditions: read-out: CDK2 (nM) inhibitory IC50
T2 construct: purchased Carna Company
Procedure, shortened: as §1

CDK4 = target: T3, CDK4 (Homo sapiens, UniProt P11802); conditions: read-out: CDK4 (nM) inhibitory IC50
T3 construct: purchased Carna Company
Procedure, shortened: as §1

CDK7 = target: T4, CDK7 (Homo sapiens, UniProt P50613); conditions: read-out: CDK7 (nM) inhibitory IC50
T4 construct: purchased Carna Company
Procedure, shortened: as §1

CDK9 = target: T5, CDK9 (Homo sapiens, UniProt P50750); conditions: read-out: CDK9 (nM) inhibitory IC50
T5 construct: purchased Carna Company
Procedure, shortened: as §1

CDK6 = target: T6, CDK6 (Homo sapiens, UniProt Q00534); conditions: read-out: CDK6 (nM) inhibitory IC50
T6 construct: purchased Carna Company
T6 sequence (Q00534 whole entry): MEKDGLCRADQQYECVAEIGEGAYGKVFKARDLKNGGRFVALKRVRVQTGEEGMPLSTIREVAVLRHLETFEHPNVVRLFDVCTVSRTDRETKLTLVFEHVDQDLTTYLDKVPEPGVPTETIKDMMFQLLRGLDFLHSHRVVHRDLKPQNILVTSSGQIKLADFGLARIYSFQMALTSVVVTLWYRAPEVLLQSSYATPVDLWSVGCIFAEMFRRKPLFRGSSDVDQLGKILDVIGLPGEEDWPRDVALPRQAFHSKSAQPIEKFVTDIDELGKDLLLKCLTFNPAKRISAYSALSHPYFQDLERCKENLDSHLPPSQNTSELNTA
T6 sequence (P30281 whole entry partner): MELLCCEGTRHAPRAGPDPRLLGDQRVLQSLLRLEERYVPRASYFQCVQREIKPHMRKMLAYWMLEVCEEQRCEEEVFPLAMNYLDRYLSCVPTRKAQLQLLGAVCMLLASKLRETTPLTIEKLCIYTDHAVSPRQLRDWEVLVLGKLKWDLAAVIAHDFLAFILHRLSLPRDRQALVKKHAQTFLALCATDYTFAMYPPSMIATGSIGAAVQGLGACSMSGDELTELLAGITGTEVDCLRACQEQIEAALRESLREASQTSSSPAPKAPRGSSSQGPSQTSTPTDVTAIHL

T4 sequence (P50613 whole entry): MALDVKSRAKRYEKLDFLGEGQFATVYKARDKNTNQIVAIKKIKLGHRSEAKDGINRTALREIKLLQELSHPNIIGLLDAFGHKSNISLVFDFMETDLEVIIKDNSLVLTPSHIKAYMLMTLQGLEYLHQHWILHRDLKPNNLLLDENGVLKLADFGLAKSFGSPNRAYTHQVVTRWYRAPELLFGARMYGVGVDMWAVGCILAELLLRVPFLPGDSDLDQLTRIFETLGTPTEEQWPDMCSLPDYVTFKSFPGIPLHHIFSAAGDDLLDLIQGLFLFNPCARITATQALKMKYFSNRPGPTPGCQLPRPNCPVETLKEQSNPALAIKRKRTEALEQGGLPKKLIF
T4 sequence (P51946 whole entry partner): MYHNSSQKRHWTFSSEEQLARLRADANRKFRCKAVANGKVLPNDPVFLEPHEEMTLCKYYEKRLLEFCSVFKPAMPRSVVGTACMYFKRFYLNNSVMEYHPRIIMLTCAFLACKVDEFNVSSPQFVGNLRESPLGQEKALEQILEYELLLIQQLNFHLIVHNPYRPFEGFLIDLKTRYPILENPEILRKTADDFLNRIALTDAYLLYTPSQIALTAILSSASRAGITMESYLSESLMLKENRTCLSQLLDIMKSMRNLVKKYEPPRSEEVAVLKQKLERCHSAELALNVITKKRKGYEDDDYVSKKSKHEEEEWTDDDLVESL
T4 sequence (P51948 whole entry partner): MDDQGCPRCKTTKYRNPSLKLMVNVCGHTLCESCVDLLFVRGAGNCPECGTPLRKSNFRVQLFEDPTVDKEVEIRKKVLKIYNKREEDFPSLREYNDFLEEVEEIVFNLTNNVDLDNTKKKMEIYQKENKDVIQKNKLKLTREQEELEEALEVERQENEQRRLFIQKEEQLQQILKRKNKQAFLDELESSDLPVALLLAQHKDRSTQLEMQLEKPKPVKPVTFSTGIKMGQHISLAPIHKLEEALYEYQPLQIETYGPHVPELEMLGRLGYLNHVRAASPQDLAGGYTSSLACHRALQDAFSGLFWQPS
T3 sequence (P11802 whole entry): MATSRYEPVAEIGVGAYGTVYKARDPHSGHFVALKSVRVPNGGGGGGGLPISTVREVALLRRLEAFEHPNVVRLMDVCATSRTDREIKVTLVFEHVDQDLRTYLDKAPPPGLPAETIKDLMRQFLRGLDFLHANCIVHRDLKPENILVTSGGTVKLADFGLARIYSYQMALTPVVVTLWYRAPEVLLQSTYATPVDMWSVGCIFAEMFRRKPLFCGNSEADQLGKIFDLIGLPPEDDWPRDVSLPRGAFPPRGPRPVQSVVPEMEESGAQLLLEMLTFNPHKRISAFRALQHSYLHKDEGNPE
T3 sequence (P30281 whole entry partner): as the sequence (P30281 whole entry partner) above
T1 sequence (P06493 whole entry): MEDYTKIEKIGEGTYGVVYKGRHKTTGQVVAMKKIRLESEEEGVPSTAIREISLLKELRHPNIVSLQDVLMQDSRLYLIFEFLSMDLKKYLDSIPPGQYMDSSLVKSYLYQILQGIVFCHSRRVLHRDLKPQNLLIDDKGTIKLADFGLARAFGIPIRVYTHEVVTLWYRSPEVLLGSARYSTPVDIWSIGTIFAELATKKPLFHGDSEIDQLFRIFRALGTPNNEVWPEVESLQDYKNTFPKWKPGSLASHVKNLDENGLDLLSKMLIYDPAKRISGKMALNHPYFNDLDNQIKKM
T1 sequence (P14635 whole entry partner): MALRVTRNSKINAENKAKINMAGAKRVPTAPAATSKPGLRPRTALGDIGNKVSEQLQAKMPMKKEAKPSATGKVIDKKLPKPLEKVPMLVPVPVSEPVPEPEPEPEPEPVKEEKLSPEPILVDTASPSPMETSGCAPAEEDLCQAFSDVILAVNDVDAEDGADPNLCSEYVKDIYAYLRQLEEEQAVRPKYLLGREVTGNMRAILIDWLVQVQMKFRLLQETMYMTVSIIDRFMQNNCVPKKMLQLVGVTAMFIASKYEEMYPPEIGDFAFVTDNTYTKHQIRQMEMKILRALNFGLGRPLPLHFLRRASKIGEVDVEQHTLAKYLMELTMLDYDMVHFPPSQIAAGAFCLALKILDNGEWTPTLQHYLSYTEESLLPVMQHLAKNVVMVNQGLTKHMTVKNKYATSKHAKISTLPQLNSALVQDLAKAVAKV
T5 sequence (P50750 whole entry): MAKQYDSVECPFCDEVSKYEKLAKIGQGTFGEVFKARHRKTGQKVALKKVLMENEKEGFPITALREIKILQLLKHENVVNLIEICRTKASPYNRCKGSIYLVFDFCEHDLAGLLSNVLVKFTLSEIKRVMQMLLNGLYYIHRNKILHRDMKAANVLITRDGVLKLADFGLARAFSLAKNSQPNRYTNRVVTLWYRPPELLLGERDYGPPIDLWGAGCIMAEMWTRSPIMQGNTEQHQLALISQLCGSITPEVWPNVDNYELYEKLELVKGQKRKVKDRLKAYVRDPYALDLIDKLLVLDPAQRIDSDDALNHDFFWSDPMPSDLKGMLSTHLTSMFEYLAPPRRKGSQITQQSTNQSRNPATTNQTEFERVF
T5 sequence (O60563 whole entry partner): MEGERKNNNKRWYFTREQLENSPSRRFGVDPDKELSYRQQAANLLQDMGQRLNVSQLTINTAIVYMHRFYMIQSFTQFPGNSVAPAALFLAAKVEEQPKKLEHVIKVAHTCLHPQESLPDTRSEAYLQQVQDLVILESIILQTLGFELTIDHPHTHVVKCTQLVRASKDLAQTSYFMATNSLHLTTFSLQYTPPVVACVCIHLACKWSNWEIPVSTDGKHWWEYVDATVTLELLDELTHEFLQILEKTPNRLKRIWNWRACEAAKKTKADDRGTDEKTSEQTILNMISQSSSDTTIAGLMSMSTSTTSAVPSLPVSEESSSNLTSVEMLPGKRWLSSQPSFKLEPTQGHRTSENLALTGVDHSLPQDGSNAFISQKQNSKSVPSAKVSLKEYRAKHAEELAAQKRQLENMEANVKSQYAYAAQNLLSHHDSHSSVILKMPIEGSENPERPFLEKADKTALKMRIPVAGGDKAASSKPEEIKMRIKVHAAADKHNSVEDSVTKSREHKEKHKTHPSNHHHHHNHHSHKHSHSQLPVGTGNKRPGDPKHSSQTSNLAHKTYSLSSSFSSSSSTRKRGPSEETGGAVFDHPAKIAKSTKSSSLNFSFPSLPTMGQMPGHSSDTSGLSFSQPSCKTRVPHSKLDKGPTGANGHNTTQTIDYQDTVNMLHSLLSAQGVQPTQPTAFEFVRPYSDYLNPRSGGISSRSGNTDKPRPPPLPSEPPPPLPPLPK

In the case of `O=S(=O)(c1ccc(N2CCNCC2)nc1)N1CCC(Nc2ncc(C(F)(F)F)c(O[C@H]3CCOC3)n2)CC1` [Compound 153], the IC50 (CDK1) is reported as 2.5 to 10 nM, the IC50 (CDK2) is reported as less than 0.5 nM and the IC50 (CDK4) is reported as 0.5 to 2.5 nM. For the same compound, the IC50 (CDK7) was 2.5 to 10 nM, the IC50 (CDK9) was 100 to 1000 nM and the IC50 (CDK6) was 0.5 to 2.5 nM.
In the case of `O=S(=O)(c1cnn(CCO)c1)N1CCC(Nc2ncc(C(F)(F)F)c(O[C@H]3CCOC3)n2)CC1` [Example 27], the IC50 (CDK1) is reported as 2.5 to 10 nM, the IC50 (CDK2) is reported as less than 0.5 nM and the IC50 (CDK4) is reported as 2.5 to 10 nM. It also gave an IC50 (CDK7) of 10 to 50 nM, an IC50 (CDK9) of 100 to 1000 nM and an IC50 (CDK6) of 10 to 50 nM.
With `CC1(O)CCN(c2ccc(S(=O)(=O)N3CCC(Nc4ncc(C(F)(F)F)c(O[C@H]5CCOC5)n4)CC3)cc2)CC1` [Compound 133] the IC50 (CDK1) was 2.5 to 10 nM, the IC50 (CDK2) was less than 0.5 nM and the IC50 (CDK4) was 0.5 to 2.5 nM. It also gave an IC50 (CDK7) of 10 to 50 nM, an IC50 (CDK9) of 50 to 100 nM and an IC50 (CDK6) of 0.5 to 2.5 nM.
Work on `CN(C)CCN(c1nc(NC2CCN(S(=O)(=O)c3cnn(C)c3)CC2)ncc1C#N)C1CCCC1` [Compound 148] yielded an IC50 (CDK1) of 100 to 1000 nM, an IC50 (CDK2) of 10 to 50 nM and an IC50 (CDK4) of 100 to 1000 nM. For the same compound, the IC50 (CDK7) was 100 to 1000 nM, the IC50 (CDK9) was greater than 1000 nM and the IC50 (CDK6) was 100 to 1000 nM.
For `Cn1cc(S(=O)(=O)N2CCC(Nc3ncc(C#N)c(NC4CCCC4)n3)CC2)cn1` [Compound 31], the IC50 (CDK1) was 50 to 100 nM, the IC50 (CDK2) was 0.5 to 2.5 nM and the IC50 (CDK4) was 2.5 to 10 nM. For the same compound, the IC50 (CDK7) was 100 to 1000 nM, the IC50 (CDK9) was 100 to 1000 nM and the IC50 (CDK6) was 0.5 to 2.5 nM.
Compound `Cc1cc(S(=O)(=O)N2CCC(Nc3ncc(C(F)(F)F)c(O[C@H]4CCOC4)n3)CC2)ccc1C1=CCNCC1` [Compound 154] has an IC50 (CDK1) of 10 to 50 nM, an IC50 (CDK2) of 0.5 to 2.5 nM and an IC50 (CDK4) of 0.5 to 2.5 nM. It also gave an IC50 (CDK7) of 10 to 50 nM, an IC50 (CDK9) of 100 to 1000 nM and an IC50 (CDK6) of 0.5 to 2.5 nM.
`CS(=O)(=O)N1CCC(Nc2ncc(C(F)(F)F)c(NC3CCCC3)n2)CC1` [Example 5, N^4-Cyclopentyl-N^2-(1-(methylsulfonyl)piperidin-4-yl)-5-(trifluoromethyl)pyrimidine-2,4-diamine] was tested, and the IC50 (CDK1) was 100 to 1000 nM, the IC50 (CDK2) was 2.5 to 10 nM and the IC50 (CDK4) was 10 to 50 nM. The IC50 (CDK7) was 10 to 50 nM, the IC50 (CDK9) was 100 to 1000 nM and the IC50 (CDK6) was 10 to 50 nM.
In the case of `O=S(=O)(c1ccc(N2CCNC(C(F)(F)F)C2)cc1)N1CCC(Nc2ncc(C(F)(F)F)c(O[C@H]3CCOC3)n2)CC1` (stereo partly drawn) [Compound 147], the IC50 (CDK1) is reported as 2.5 to 10 nM, the IC50 (CDK2) is reported as 0.5 to 2.5 nM and the IC50 (CDK4) is reported as 0.5 to 2.5 nM. The IC50 (CDK7) was 10 to 50 nM, the IC50 (CDK9) was 50 to 100 nM and the IC50 (CDK6) was 0.5 to 2.5 nM.
In the case of `O=S(=O)(c1ccc(C2=CCNC2)cc1)N1CCC(Nc2ncc(C(F)(F)F)c(O[C@H]3CCOC3)n2)CC1` [Compound 146], the IC50 (CDK1) is reported as 2.5 to 10 nM, the IC50 (CDK2) is reported as less than 0.5 nM and the IC50 (CDK4) is reported as 0.5 to 2.5 nM. The IC50 (CDK7) was 2.5 to 10 nM, the IC50 (CDK9) was 100 to 1000 nM and the IC50 (CDK6) was 0.5 to 2.5 nM.
`O=S(=O)(c1ccc(C2CNC2)cc1)N1CCC(Nc2ncc(C(F)(F)F)c(O[C@H]3CCOC3)n2)CC1` [Compound 131] gave an IC50 (CDK1) of 2.5 to 10 nM, an IC50 (CDK2) of less than 0.5 nM and an IC50 (CDK4) of 0.5 to 2.5 nM. It also gave an IC50 (CDK7) of 2.5 to 10 nM, an IC50 (CDK9) of 100 to 1000 nM and an IC50 (CDK6) of 0.5 to 2.5 nM.
In the case of `C[C@H]1CN(c2ccc(S(=O)(=O)N3CCC(Nc4ncc(C(F)(F)F)c(O[C@H]5CCOC5)n4)CC3)cc2)C[C@H](C)N1` [Example 168], the IC50 (CDK1) is reported as 2.5 to 10 nM, the IC50 (CDK2) is reported as less than 0.5 nM and the IC50 (CDK4) is reported as 0.5 to 2.5 nM. It also gave an IC50 (CDK7) of 2.5 to 10 nM, an IC50 (CDK9) of 100 to 1000 nM and an IC50 (CDK6) of less than 0.5 nM.
`O=S(=O)(c1ccc(C2=CCCNC2)cc1)N1CCC(Nc2ncc(C(F)(F)F)c(O[C@H]3CCOC3)n2)CC1` [Example 112, (S)-4-((Tetrahydrofuran-3-yl)oxy)-N-(1-((4-(1,2,5,6-tetrahydropyridin-3-yl)phenyl)sulfonyl)piperidin-4-yl)-5-(trifluoromethyl)pyrimidin-2-amine] gave an IC50 (CDK1) of 2.5 to 10 nM, an IC50 (CDK2) of less than 0.5 nM and an IC50 (CDK4) of 0.5 to 2.5 nM. The IC50 (CDK7) was 2.5 to 10 nM, the IC50 (CDK9) was 100 to 1000 nM and the IC50 (CDK6) was 0.5 to 2.5 nM.
For `Cn1cc(S(=O)(=O)N2CCC(Nc3ncc(C(F)(F)F)c(O[C@H]4CCOC4)n3)CC2)cn1` [Example 7, (S)—N-(1-((1-Methyl-1H-pyrazol-4-yl)sulfonyl)piperidin-4-yl)-4-((tetrahydrofuran-3-yl)oxy)-5-(trifluoromethyl)pyrimidin-2-amine], the IC50 (CDK1) was 10 to 50 nM, the IC50 (CDK2) was 0.5 to 2.5 nM and the IC50 (CDK4) was 10 to 50 nM. For the same compound, the IC50 (CDK7) was 10 to 50 nM, the IC50 (CDK9) was 100 to 1000 nM and the IC50 (CDK6) was 10 to 50 nM.
With `O=S(=O)(c1ccc(N2CCNCC2)cc1)N1CCC(Nc2ncc(C(F)(F)F)c(O[C@H]3CCOC3)n2)CC1` [Example 116] the IC50 (CDK1) was 2.5 to 10 nM, the IC50 (CDK2) was less than 0.5 nM and the IC50 (CDK4) was 0.5 to 2.5 nM. It also gave an IC50 (CDK7) of 10 to 50 nM, an IC50 (CDK9) of 100 to 1000 nM and an IC50 (CDK6) of 0.5 to 2.5 nM.
`Cn1cnc(S(=O)(=O)N2CCC(Nc3ncc(C#N)c(NC4CCCC4)n3)CC2)c1` [Compound 34] was tested, and the IC50 (CDK1) was 10 to 50 nM, the IC50 (CDK2) was 0.5 to 2.5 nM and the IC50 (CDK4) was 2.5 to 10 nM. The IC50 (CDK7) was 100 to 1000 nM, the IC50 (CDK9) was 100 to 1000 nM and the IC50 (CDK6) was 10 to 50 nM.
Work on `O=S(=O)(c1ccc([C@@H]2CCCNC2)cc1)N1CCC(Nc2ncc(C(F)(F)F)c(O[C@H]3CCOC3)n2)CC1` (single isomer, unassigned) [Example 114] yielded an IC50 (CDK1) of 2.5 to 10 nM, an IC50 (CDK2) of less than 0.5 nM and an IC50 (CDK4) of 0.5 to 2.5 nM. The IC50 (CDK7) was 2.5 to 10 nM, the IC50 (CDK9) was 100 to 1000 nM and the IC50 (CDK6) was 0.5 to 2.5 nM.
